Assay results as given in patent US20070117864A1, “Composition for preventing and treating hepatoma” (Tokyo University of Agr. & Tech. TLO Co., Ltd., priority 2003, published 2007).
Marks after values point to notes of the source that are not given here.

Key:
AH109A cells = assay: apoptosis of AH109A cells by flow cytometry, Annexin V/PI double staining; format: cell-based, rat; settings: for proportion of the fourth quadrant (early stage of apoptosis) / proportion of the second quadrant (secondary necrosis) / proportion of the third quadrant (live cells): 3 hours
Method: The analysis was performed using an ANNEXIN V FITC kit (IMMUNOTECH, Marseille, France). AH109A cells were inoculated at the density of 1×10^6 cells with 3 ml of the experimental medium in a dish with 6 cm in diameter (NUNC), and the cells were cultured for 0, 3 and 6 hours in a CO2 incubator at 37° C. The AH109A cells cultured under the respective treatment conditions were recovered, centrifuged for 5 minutes at 4° C. at 1000 rpm (90×g), and washed once with PBS (−). Subsequently, the cells was suspended in 490 μl of a binding buffer, and 5 μl of a PI solution and 5 μl of ANNEXIN V FITC, and these substances were gently mixed. The cells were stained by allowing the preparation to stand quietly for 10 minutes on ice with the light blocked. The apoptosis of the cells was analyzed using a flow cytometer (EPICS ELITE ESP; Beckman-Coulter, Hialeah, Fla., USA).

[1] = food intake, body weight gain and liver weight in hepatoma-bearing rats; format: in vivo, rat; settings: for Body weight gain: mean ± SEM of 11 rats
Method: Male Donryu rats of four weeks old were purchased from NRC Haruna, Gumma, Japan, and were preliminarily fed for 6 days in quintuple cages in a room with a controlled environment with light period of 8:00 to 20:00, room temperature of 22±1° C., and relative humidity of 60±5%. For the first 3 days, the animals were fed ad libitum with a stock pellet diet (CE-2; CLEA Japan, Tokyo), and for the next 3 days, they were fed a basal diet containing 20% milk casein (20C) (Table 1) ad libitum together with tap water in a glass container. Following the completion of this preparatory raising, the rats were divided into three groups (11 animals per group) with equal average body weights of the respective groups were equal, and 1.0×10^7 of AH109A cells suspended in PBS (−) were transplanted in the back of all the rats. From the time immediately after transplantation, in the respective experimental groups, the animals were fed the experimental diets shown in Table 2. During the experimental period, the body weight, food intake and solid tumor size (sum of length, width and height) were measured everyday. On the day that the animals were killed, animals were deprived of experimental diets at 9:00, but freely given water until they were killed 4 hours later. Blood was collected from carotid, and the liver and solid tumors were excised. The collected blood was allowed to stand for approximately 2 hours at room temperature, and then centrifuged for 10 minutes at 3000 rpm (1750×g), 4° C., to obtain serum. This blood serum was frozen and stored at −20° C. The livers and solid tumors were washed with physiological saline, blotted on filter paper, and weighed. Furthermore, feces from the 19th to 21st days after transplantation were collected, and these feces were frozen and stored at −20° C. for the measurement of the amounts of steroids excreted from the body.

[2] = serum lipid peroxide levels (TBARS) in hepatoma-bearing rats; format: in vivo, rat; settings: mean ± SEM of 11 rats
Method: Male Donryu rats of four weeks old were purchased from NRC Haruna, Gumma, Japan, and were preliminarily fed for 6 days in quintuple cages in a room with a controlled environment with light period of 8:00 to 20:00, room temperature of 22±1° C., and relative humidity of 60±5%. For the first 3 days, the animals were fed ad libitum with a stock pellet diet (CE-2; CLEA Japan, Tokyo), and for the next 3 days, they were fed a basal diet containing 20% milk casein (20C) (Table 1) ad libitum together with tap water in a glass container. Following the completion of this preparatory raising, the rats were divided into three groups (11 animals per group) with equal average body weights of the respective groups were equal, and 1.0×10^7 of AH109A cells suspended in PBS (−) were transplanted in the back of all the rats. From the time immediately after transplantation, in the respective experimental groups, the animals were fed the experimental diets shown in Table 2. During the experimental period, the body weight, food intake and solid tumor size (sum of length, width and height) were measured everyday. […] LPO levels were determined by measuring thiobarbituric acid-reactive substances (TBARS) by the Yagi fluorescence method using a lipid peroxide test Wako (Wako Pure Chemical Industries).

O=C1OCC(Cc2cccc(O)c2)C1Cc1cccc(O)c1 (centres unmarked) [Enterolactone, enterolactone]
proportion of the fourth quadrant (early stage of apoptosis) (AH109A cells; 6.25 μM ENL): 8.4%
proportion of the second quadrant (secondary necrosis) (AH109A cells; 6.25 μM ENL): 2.8%
proportion of the third quadrant (live cells) (AH109A cells; 6.25 μM ENL): 88.1%
proportion of the fourth quadrant (early stage of apoptosis) (AH109A cells; 12.5 μM ENL): 11.4%
proportion of the second quadrant (secondary necrosis) (AH109A cells; 12.5 μM ENL): 2.3%
proportion of the third quadrant (live cells) (AH109A cells; 12.5 μM ENL): 86.1%
proportion of cells in the early stage of apoptosis (AH109A cells; 6.25 and 12.5 μM ENL): increased
proportion of cells showing secondary necrosis (AH109A cells; 6.25 and 12.5 μM ENL): increased to some extent
proportion of live cells (AH109A cells; 6.25 and 12.5 μM ENL): decreased in a dose-dependent manner
body weight ([1]; 100 ppm ENL ingestion group versus control): significant increase
Body weight gain ([1]; diet 10 ppm): 158 ± 8^a g/21 days
Body weight gain ([1]; diet 100 ppm): 171 ± 4^b g/21 days
Serum TBARS ([2]; diet 10 ppm): 7.31 ± 0.37 nmol/mL
Serum TBARS ([2]; diet 100 ppm): 6.87 ± 0.51 nmol/mL
